Measured values published in US20160355782A1, “METHOD FOR ENHANCING DIFFERENTIATION OF DOPAMINERGIC NEURONS” (Buddhist Tzu Chi Medical Foundation, priority 2015, published 2016).

Assays:
VM precursor cultures [1] = experiment: Real-time RT-PCR analysis of VM precursor cultures; assay type: cell-based, rat; settings: 1.25 mM SB, 3 days
VM precursor cultures [2] = experiment: DA uptake assay in VM precursor cultures; assay type: cell-based, rat; settings: 1 μM UCN, 4 days
Procedure: (§1) For DA uptake assay, cells were washed twice with warm Krebs-Ringer buffer (16 mM sodium phosphate, 119 mM NaCl, 4.7 mM KCl, 1.8 mM CaCl2, 1.2 mM MgSO4, 1.3 mM EDTA and 5.6 mM glucose, pH 7.4), and then incubated with 1 μM [^3H]-dopamine(DA)(60 Ci/mmol, PerkinElmer) in Krebs-Ringer buffer at 37° C. for 20 min. After washing with ice-cold Krebs-Ringer buffer, cells were collected in 1 N NaOH and radioactivity was counted with a liquid scintillation counter. Non-specific uptake was determined in parallel wells that received both the tritiated tracer and 10 μM mazindol. The specific [^3H] DA were calculated by subtracting the amount of radioactivity obtained in the presence of mazindol from that obtained in the absence of mazindol.

[3] = test system: human DA neuroblastoma SH-SY5Y cells; experiment: Western blot of TH protein in SH-SY5Y cells; assay type: cell-based; settings: UCN vs control medium
Procedure: Human DA neuroblastoma SH-SY5Y cells were grown in Minimal Essential Medium (MEM)/F12 medium containing 10% FBS, 2 mM L-glutamine, 100 μM nonessential amino acids, 100 U/mL penicillin, and 100 μg/mL streptomycin. Cells were incubated at 37° C. under saturating humidity in 5% CO2/95% air.
For Western blot analysis, VM precursor cells were lysed in M-PER® Mammalian Protein Extraction Reagent (Pierce). Protein concentration was determined by Bradford assay (Bio-Rad, Hercules, Calif.). 30˜50 μg of protein sample was separated on 10˜12% sodium dodecyl sulphate-polyacrylamide gel (SDS-PAGE) and transferred to immobilon polyvinylidene difluoride (PVDF) membranes (Merck Millipore). The membranes were incubated in Tris-buffered saline (TBST, 0.1 M Tris/HCl, pH 7.4, 0.9% NaCl, 0.1% Tween 20) supplemented with 5% non-fat dry milk for 1 h to block nonspecific binding. […] The antigen-antibody complex was detected by using an ECL chemi-luminescence detection system (PerkinElmer, Boston, Mass.). The intensity of the bands was quantified with a GS-800 calibrated densitometer (Bio-Rad), and calculated as the optical density X area of bands.

[4] = test system: Nurr1-transduced cortical NPCs; experiment: Real-time RT-PCR of DA phenotype genes in Nurr1-transduced cortical NPCs; assay type: cell-based, rat; settings: 0.5 μM UCN, 3 days
Procedure: TH promoter assay or lenti-virial transductions were carried out at 60%˜70% cell confluences (usually for 3 days) as described below. Cell differentiation was induced for 3 to 5 days by switching to mitogens-free DMEM/F12/N2 medium in the presence of 0.5 μM UCN. Differentiation medium was changed every other day.
(§2) For lenti-viral transduction, E13 cortical NPCs were incubated with lenti-viruses (25 multiplicity of infection) expressing Nurr1 or GFP containing poly-brene (hexadimethrine bromide, 1 μg/mL, Sigma-Aldrich) for 24 hours. After 1 day of further cell expansion in the presence of the mitogens, cells were induced to differentiate.
Total RNA was extracted from VM tissues or cultured VM precursors with TRIzol® reagent (Invitrogen). One-step real-time RT-PCR analysis was performed to determine the expression of genes (Power SYBR® Green RNA-to-CT™ 1-step kit, Applied Biosystems, Foster City, Calif.). Threshold cycle (CO value for each test gene was normalized to the Ct value for the β-actin control from the same RNA preparations. The ratio of transcription of each gene was calculated as 2^−(ΔCt), where ΔCt is the difference Cr (test gene)−Ct (β-actin). The primers used herein are listed in Table 1.

[5] = test system: Nurr1-transduced cortical NPCs; experiment: DA uptake assay in Nurr1-transduced cortical NPCs; assay type: cell-based, rat; settings: 0.5 μM UCN, 4 days
Procedure: as §2, §1

[6] = test system: Nurr1 complexes in VM precursor cells; experiment: Immuno-precipitation with anti-Nurr1 antibody in VM precursor cells; assay type: cell-based, rat; settings: UCN, 24 hours
Procedure: For immuno-precipitation, VM precursor cells were treated with UCN for 24 hours and then harvested with M-PER® Mammalian Protein Extraction Reagent (Pierce, Rockford, Ill.) containing 1 mM PMSF, 10 μg/mL aprotinin, 10 μg/mL leupeptin, and 5 μg/mL pepstatin A. The cytosolic lysates (250 μg of protein) were incubated with a rabbit anti-Nurr1 antibody (Santa Cruz Biotechnology) with gentle rocking overnight at 4° C. PureProteome™ protein G magnetic beads (Merck Millipore, Billerica, Mass.) were added (15 μL of suspension) and rotated for 3 h at 4° C. After washing the beads with ice-cold immuno-precipitation buffer (20 mM Tris, pH 7.5, 150 mM NaCl, 1 mM EDTA, 1 mM EGTA, 1% Triton X-100, 2.5 mM sodium pyrophosphate, 1 mM β-glycerolphosphate, 1 mM Na3VO4, 1 μg/mL leupeptin, 1 mM PMSF), immuno-precipitated proteins were eluted in sample buffer, and subjected to Western blot analyses with anti-MeCP2, -CoREST, -HDAC1, -Nurr1, -Foxa2, or -Pitx3 antibodies.

midbrain explants = experiment: Midbrain explant cultures, TH+ cell numbers; assay type: cell-based, rat; settings: UCN, 3 days
Procedure: Midbrain explants were dissected from E13.5 embryos by the method known by a person skilled in the art, for example as the protocol described by Baizabal and Covarrubias (2009) and performed with some modifications.
The dorsal midline of the explants was cut and the tissue was placed on porous (0.4 μm) transparent membrane inserts (25-mm in diameter, Nunc, Roskilde, Denmark) with the ventricular surface facing up. Inserts were then placed into six-well culture plates. Each well contained 1.5 mL of MEM medium supplemented with 10% FBS, 100 U/mL penicillin, and 100 μg/mL streptomycin. Explants were incubated at 37° C. with 5% CO2 for 4 hours, after which the explants were incubated in a serum-free DMEM/F12/N2 medium with or without UCN for 3 days. Midbrain explants were then fixed with 4% paraformaldehyde and immuno-histochemical analysis was performed.

Molecule | TH mRNA expression (VM precursor cultures [1]) | DAT-mediated specific DA uptake (VM precursor cultures [2]) | TH protein levels [3] | DAT gene expression [4] | TH gene expression [4] | VMAT2 gene expression [4] | DA neuronal function as assessed by DA uptake [5] | amount of Foxa2 that precipitates with Nurr1 [6] | interaction between Pitx3 and Nurr1 proteins [6] | number of TH+ cells in midbrain explants (midbrain explants)
CCCC(=O)[O-].[Na+] [SB, sodium butyrate, reference compound] | markedly upregulated |  |  |  |  |  |  |  |  | 
Urocortin [UCN] |  | significantly enhanced | induced the increases | increased gene expression | increased gene expression | increased gene expression | increased DA neuronal function | markedly enhanced | not significantly altered | increases
